pIC50: −log10 of the molar value. Like-named read-outs stand apart in the source and are kept apart here.
Assays:
Format in all cases: cell-based, human
HTT [1] = test: Splicing RT-qPCR assay, HTT mRNA canonical junction (CJ) and alternative junction (AJ); details: for AC50: increase in AJ mRNA
Procedure, shortened: (§1)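 First, A673 cells adhered 24 h, while K562 cells were plated directly. Next, compounds were added as an 11-point 3-fold series from 10 uM for 24 h. Finally, lysates went to RT-qPCR, with 2^(−ΔΔCt) values converted to percentage response.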

MYB [2] = test: Splicing RT-qPCR assay, MYB mRNA canonical junction (CJ) and alternative junction (AJ); details: for AC50: increase in AJ mRNA
Procedure, shortened: as §1

SMN2 = test: Splicing RT-qPCR panel, SMN2 canonical junction (CJ) mRNA; details: read-out: SMN2 IC50 (decrease in CJ mRNA levels)
Procedure, shortened: as §1

Target C [3] = test: Splicing RT-qPCR panel, Target C canonical junction (CJ) mRNA; details: read-out: Target C IC50 (decrease in CJ mRNA levels)
Procedure, shortened: as §1

MYB [4] = test: HiBiT protein abundance assay, MYB; details: modified K562 cells
Procedure, shortened: (§2)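 HiBiT-tagged endogenous targets in K562 cells treated 24 h at 37° C. with 10-point 3-fold dilutions (top 10 μM, DMSO ≤0.25%). Luminescence read after lytic LgBiT detection; response normalised to unmodified-cell and DMSO controls, IC50 interpolated at 50% from four-parameter logistic fit.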

HTT [5] = test: HiBiT protein abundance assay, HTT; details: modified K562 cells
Procedure, shortened: as §2

Target C [6] = test: HiBiT protein abundance assay, Target C; details: modified K562 cells
Procedure, shortened: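 HiBiT knock-in K562-derived cells seeded at 10000/well and treated with 10-point 3-fold dilutions (top final 10 μM, ≤0.25% DMSO) for 24 h at 37 °C. Lytic HiBiT luminescence normalised to unmodified-cell and DMSO controls; IC50 from 4-parameter fit at 50% abundance.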

[7] = Homo sapiens, 24 h, decrease in CJ mRNA, A673 or K562 cells, 24 hours treatment, RT-qPCR, read-out: HTT CJ IC50
[8] = Homo sapiens, 24 h, A673 or K562 cells, 24 hours treatment, RT-qPCR
[9] = Homo sapiens, RT-qPCR panel, canonical junction mRNA, compound concentration having 50% response in CJ decrease, read-out: HTT IC50 (decrease in CJ mRNA levels)
[10] = Homo sapiens, 24 h, decrease in CJ mRNA, A673 or K562 cells, 24 hours treatment, RT-qPCR, read-out: MYB CJ IC50
[11] = Homo sapiens, RT-qPCR panel, canonical junction mRNA, compound concentration having 50% response in CJ decrease, read-out: MYB IC50 (decrease in CJ mRNA levels)
[12] = Homo sapiens, RT-qPCR panel, canonical junction mRNA, compound concentration having 50% response in CJ decrease
[13] = Homo sapiens, K562, 24 h, Table 13A
[14] = Homo sapiens, gene panel, CJ qPCR, protocol of Example 142, read-out: HTT IC50 (decrease in CJ mRNA levels)
[15] = Homo sapiens, gene panel, CJ qPCR, protocol of Example 142, read-out: MYB IC50 (decrease in CJ mRNA levels)
[16] = Homo sapiens, gene panel, CJ qPCR, protocol of Example 142
[17] = Homo sapiens, K562, 24 h, Table 13B
[18] = RT-qPCR panel, canonical junction mRNA, compound concentration having 50% response in CJ decrease, read-out: HTT IC50 (decrease in CJ mRNA levels)
[19] = RT-qPCR panel, canonical junction mRNA, compound concentration having 50% response in CJ decrease, read-out: MYB IC50 (decrease in CJ mRNA levels)
[20] = RT-qPCR panel, canonical junction mRNA, compound concentration having 50% response in CJ decrease

Row | Compound | pIC50 (HTT [1]; [7]) | AC50 (HTT [1]; [8]) | pIC50 (HTT [1]; [9]) | pIC50 (MYB [2]; [10]) | AC50 (MYB [2]; [8]) | pIC50 (MYB [2]; [11]) | pIC50 (SMN2; [12]) | pIC50 (Target C [3]; [12]) | pIC50 (MYB [4]; [13]) | pIC50 (HTT [5]; [13]) | pIC50 (Target C [6]; [13]) | also measured
1 | CC1(C)CC(Oc2ccc(-c3ccc(-n4cccn4)c4ncsc34)nn2)CC(C)(C)N1 [Compound 335, 4-(pyrazol-1-yl)-7-{6-[(2,2,6,6-tetramethylpiperidin-4-yl)oxy]pyridazin-3-yl}-1,3-benzothiazole] | 5.00 to 6.00 | 1 to 10 µM | 5.00 to 6.00 | 5.00 to 6.00 | 1 to 10 µM | 5.00 to 6.00 | 6.00 to 7.00 | 5.00 to 6.00 | 5.00 to 6.00 | 6.00 to 7.00 | 5.00 to 6.00 | –
2 | CC1(C)CC(N(c2ccc(-c3ccc(-c4cn[nH]c4)c4ncsc34)nn2)C2CC2)CC(C)(C)N1 [Compound 284] | 6.00 to 7.00 | 0.1 to 1 µM | 6.00 to 7.00 | 6.00 to 7.00 | > 10 µM | 6.00 to 7.00 | 6.00 to 7.00 | 5.00 to 6.00 | 6.00 to 7.00 | 6.00 to 7.00 | 5.00 to 6.00 | –
3 | c1n[nH]cc1-c1ccc(-c2ccc(N3CCC4(CCCNC4)C3)nn2)c2[nH]ncc12 (centres unmarked) [Compound 252] | < 5.00 | > 10 µM | < 5.00 | < 5.00 | > 10 µM | < 5.00 | 5.00 to 6.00 | < 5.00 | 5.00 to 6.00 | < 5.00 | < 5.00 | –
4 | CCOc1nc(-c2ccc(OC3CC4CC(F)(F)C(C3)N4)nn2)ccc1-c1cn[nH]c1 (centres unmarked) [Compound 970] | – | – | – | – | – | – | – | – | – | – | – | pIC50 (HTT [1]; [14]): < 5.00; pIC50 (MYB [2]; [15]): < 5.00; pIC50 (SMN2; [16]): 5.00 to 6.00; pIC50 (Target C [3]; [16]): < 5.00; pIC50 (MYB [4]; [17]): < 5.00; pIC50 (HTT [5]; [17]): < 5.00; pIC50 (Target C [6]; [17]): < 5.00
5 | CN(c1ccc(-c2ccc(-c3cn[nH]c3)c3cn[nH]c23)nn1)[C@H]1C[C@]2(C)CC[C@](C)(C1)N2 [Compound 146] | – | < 0.1 µM | > 7.00 | 6.00 to 7.00 | 0.1 to 1 µM | 6.00 to 7.00 | > 7.00 | > 7.00 | > 7.00 | > 7.00 | > 7.00 | –
6 | c1n[nH]cc1-c1ccc(-c2ccc(N3CCNCC3)nn2)c2[nH]ncc12 [Compound 241] | < 5.00 | 1 to 10 µM | < 5.00 | < 5.00 | 1 to 10 µM | < 5.00 | 5.00 to 6.00 | < 5.00 | 5.00 to 6.00 | 5.00 to 6.00 | 5.00 to 6.00 | –
7 | CCn1ncc(-c2ccc(-c3ccc(N(C)[C@@H]4C[C@H]5CC[C@@H](C4)N5)nn3)c3[nH]ncc23)n1 [Compound 317, N-{6-[4-(2-ethyl-1,2,3-triazol-4-yl)-1H-indazol-7-yl]pyridazin-3-yl}-N-methyl-8-azabicyclo[3.2.1]octan-3-amine] | 6.00 to 7.00 | 0.1 to 1 µM | 6.00 to 7.00 | 6.00 to 7.00 | 0.1 to 1 µM | 6.00 to 7.00 | 5.00 to 6.00 | 5.00 to 6.00 | 6.00 to 7.00 | 6.00 to 7.00 | 6.00 to 7.00 | –
8 | c1nc2c(-c3cn[nH]c3)ccc(-c3ccc(S[C@@H]4C[C@H]5CC[C@@H](C4)N5)nn3)c2s1 [Compound 200] | < 5.00 | > 10 µM | < 5.00 | < 5.00 | > 10 µM | < 5.00 | < 5.00 | < 5.00 | 5.00 to 6.00 | 5.00 to 6.00 | 5.00 to 6.00 | –
9 | CC(C)(C)NC1CCN(c2ccc(-c3ccc(-c4cn[nH]c4)c4ncsc34)nn2)C1 (centres unmarked) [Compound 345, N-tert-butyl-1-{6-[4-(1H-pyrazol-4-yl)-1,3-benzothiazol-7-yl]pyridazin-3-yl} pyrrolidin-3-amine] | – | – | – | – | – | – | – | – | – | – | – | pIC50 (HTT [1]; [18]): 5.00 to 6.00; pIC50 (HTT [1]; decrease in CJ mRNA, A673 or K562 cells, 24 hours treatment, RT-qPCR, read-out: HTT CJ IC50): 5.00 to 6.00; pIC50 (MYB [2]; [19]): 5.00 to 6.00; pIC50 (MYB [2]; decrease in CJ mRNA, A673 or K562 cells, 24 hours treatment, RT-qPCR, read-out: MYB CJ IC50): 5.00 to 6.00; pIC50 (SMN2; [20]): 6.00 to 7.00; pIC50 (Target C [3]; [20]): 5.00 to 6.00; pIC50 (MYB [4]; Table 13A, 24 hours): 5.00 to 6.00; pIC50 (HTT [5]; Table 13A, 24 hours): 6.00 to 7.00; pIC50 (Target C [6]; Table 13A, 24 hours): 5.00 to 6.00
10 | CC(C)(C)NC1CCN(c2ncc(-c3ccc(-c4cn[nH]c4)c4ncsc34)nn2)C1 (centres unmarked) [Compound 569] | – | – | 6.00 to 7.00 | – | – | 5.00 to 6.00 | 5.00 to 6.00 | 5.00 to 6.00 | 5.00 to 6.00 | 6.00 to 7.00 | 5.00 to 6.00 | –
11 | CCN(c1ccc(-c2ccc(-c3cn[nH]c3)c3ncsc23)nn1)C1CCNCC1 [Compound 224] | < 5.00 | > 10 µM | < 5.00 | 5.00 to 6.00 | > 10 µM | 5.00 to 6.00 | 5.00 to 6.00 | < 5.00 | 6.00 to 7.00 | 5.00 to 6.00 | 5.00 to 6.00 | –
12 | CNC1CCN(c2ncc(-c3ccc(-n4cccn4)c4[nH]ncc34)nn2)C1 (centres unmarked) [Compound 549] | – | – | – | – | – | – | – | – | – | – | – | pIC50 (HTT [1]; [18]): 5.00 to 6.00; pIC50 (MYB [2]; [19]): 5.00 to 6.00; pIC50 (SMN2; [20]): 5.00 to 6.00; pIC50 (Target C [3]; [20]): < 5.00; pIC50 (MYB [4]; Table 13A, 24 hours): 5.00 to 6.00; pIC50 (HTT [5]; Table 13A, 24 hours): 5.00 to 6.00; pIC50 (Target C [6]; Table 13A, 24 hours): 5.00 to 6.00
13 | CN(c1ccc(-c2ccc(-c3cnn(C)c3)c3cn[nH]c23)nn1)C1CC(C)(C)NC(C)(C)C1 [Compound 243] | 5.00 to 6.00 | 1 to 10 µM | 5.00 to 6.00 | 5.00 to 6.00 | 1 to 10 µM | 5.00 to 6.00 | 6.00 to 7.00 | < 5.00 | 5.00 to 6.00 | 5.00 to 6.00 | < 5.00 | –
14 | CC1(C)CC(Nc2ccc(-c3ccc(-c4cn[nH]c4)c4cn[nH]c34)nn2)CC(C)(C)N1 [Compound 275] | 6.00 to 7.00 | 1 to 10 µM | 6.00 to 7.00 | 6.00 to 7.00 | 1 to 10 µM | 6.00 to 7.00 | 6.00 to 7.00 | 5.00 to 6.00 | 6.00 to 7.00 | 6.00 to 7.00 | > 7.00 | –
15 | Cn1ncc(-c2ccc(-c3ccc(O[C@@H]4C[C@H]5CC[C@@H](C4)N5)nn3)c3[nH]ncc23)n1 [Compound 321, 7-{6-[(1R,3S,5S)-8-azabicyclo[3.2.1]octan-3-yloxy]pyridazin-3-yl}-4-(2-methyl-1,2,3-triazol-4-yl)-1H-indazole] | 6.00 to 7.00 | 0.1 to 1 µM | 6.00 to 7.00 | 6.00 to 7.00 | 0.1 to 1 µM | 6.00 to 7.00 | > 7.00 | 6.00 to 7.00 | 6.00 to 7.00 | 6.00 to 7.00 | 6.00 to 7.00 | –
16 | COc1nc(-c2ccc(N(C)C3CC(C)(C)NC(C)(C)C3)nc2)ccc1-c1cnn(C)n1 [Compound 996] | – | – | – | – | – | – | – | – | – | – | – | pIC50 (HTT [1]; [14]): 6.00 to 7.00; pIC50 (MYB [2]; [15]): 5.00 to 6.00; pIC50 (SMN2; [16]): 6.00 to 7.00; pIC50 (Target C [3]; [16]): 5.00 to 6.00; pIC50 (MYB [4]; [17]): 5.00 to 6.00; pIC50 (HTT [5]; [17]): 6.00 to 7.00; pIC50 (Target C [6]; [17]): 6.00 to 7.00
17 | CCc1n[nH]c2c(-c3ccc(N(C)[C@@H]4C[C@H]5CC[C@@H](C4)N5)nn3)ccc(-c3cnn(C)n3)c12 [Compound 359, (1R,3S,5S)-N-{6-[3-ethyl-4-(2-methyl-1,2,3-triazol-4-yl)-1H-indazol-7-yl]pyridazin-3-yl}-N-methyl-8-azabicyclo[3.2.1]octan-3-amine] | < 5.00 | > 10 µM | < 5.00 | < 5.00 | > 10 µM | < 5.00 | < 5.00 | < 5.00 | 5.00 to 6.00 | < 5.00 | < 5.00 | –
18 | CN(c1ccc(-c2ccc(-c3ccn(C)c(=O)c3)c3ncsc23)nn1)C1CC(C)(C)NC(C)(C)C1 [Compound 279] | 5.00 to 6.00 | 1 to 10 µM | 5.00 to 6.00 | 5.00 to 6.00 | > 10 µM | 5.00 to 6.00 | 6.00 to 7.00 | < 5.00 | 5.00 to 6.00 | 5.00 to 6.00 | 5.00 to 6.00 | –

— patent publication US20240368163A1, “COMPOUNDS AND METHODS FOR MODULATING SPLICING” (REMIX THERAPEUTICS INC., priority 2021, published 2024)
